# Results reported in ChEMBL document CHEMBL6121066, “Structure-Activity Relationship Studies of DNA Methyltransferase 1 Monovalent Degraders” (J Med Chem, 2025).
# Active and inactive are the calls of the source. No cut-off for these calls is given here.
# Experiments:
# [1] = (§1) Induction of molecular glue effect mediated DNMT1 degradation in human HCT-116 cells assessed as reduction in DNMT1 protein level incubated for 24 hrs by Western blot analysis; assay type: cell-based; conditions: HCT-116, 24 h
# HCT-116 [2] = assay: as §1; assay type: cell-based
# HCT-116 [3] = assay: Induction of molecular glue effect mediated DNMT1 degradation in human HCT-116 cells assessed as reduction in DNMT1 protein level by measuring maximal efficacy at 1 uM incubated for 24 hrs by Western blot analysis relative to control; assay type: cell-based
# [4] = Induction of molecular glue effect mediated DNMT1 degradation in human MDA-MB-468 cells assessed as reduction in DNMT1 protein level incubated for 24 hrs by Western blot analysis; assay type: cell-based; conditions: MDA-MB-468, 24 h
# [5] = Induction of molecular glue effect mediated DNMT1 degradation in human NCI-H1299 cells assessed as reduction in DNMT1 protein level incubated for 24 hrs by Western blot analysis; assay type: cell-based; conditions: NCI-H1299, 24 h
# [6] = molecular target: T1, Histone-lysine N-methyltransferase NSD2 (Homo sapiens) (UniProt O96028); assay: Inhibition of human NSD2 using nucleosomes and SAM as substrate at 1 uM by radioisotope-based MT HotSpot assay relative to control
# T1 sequence (whole entry): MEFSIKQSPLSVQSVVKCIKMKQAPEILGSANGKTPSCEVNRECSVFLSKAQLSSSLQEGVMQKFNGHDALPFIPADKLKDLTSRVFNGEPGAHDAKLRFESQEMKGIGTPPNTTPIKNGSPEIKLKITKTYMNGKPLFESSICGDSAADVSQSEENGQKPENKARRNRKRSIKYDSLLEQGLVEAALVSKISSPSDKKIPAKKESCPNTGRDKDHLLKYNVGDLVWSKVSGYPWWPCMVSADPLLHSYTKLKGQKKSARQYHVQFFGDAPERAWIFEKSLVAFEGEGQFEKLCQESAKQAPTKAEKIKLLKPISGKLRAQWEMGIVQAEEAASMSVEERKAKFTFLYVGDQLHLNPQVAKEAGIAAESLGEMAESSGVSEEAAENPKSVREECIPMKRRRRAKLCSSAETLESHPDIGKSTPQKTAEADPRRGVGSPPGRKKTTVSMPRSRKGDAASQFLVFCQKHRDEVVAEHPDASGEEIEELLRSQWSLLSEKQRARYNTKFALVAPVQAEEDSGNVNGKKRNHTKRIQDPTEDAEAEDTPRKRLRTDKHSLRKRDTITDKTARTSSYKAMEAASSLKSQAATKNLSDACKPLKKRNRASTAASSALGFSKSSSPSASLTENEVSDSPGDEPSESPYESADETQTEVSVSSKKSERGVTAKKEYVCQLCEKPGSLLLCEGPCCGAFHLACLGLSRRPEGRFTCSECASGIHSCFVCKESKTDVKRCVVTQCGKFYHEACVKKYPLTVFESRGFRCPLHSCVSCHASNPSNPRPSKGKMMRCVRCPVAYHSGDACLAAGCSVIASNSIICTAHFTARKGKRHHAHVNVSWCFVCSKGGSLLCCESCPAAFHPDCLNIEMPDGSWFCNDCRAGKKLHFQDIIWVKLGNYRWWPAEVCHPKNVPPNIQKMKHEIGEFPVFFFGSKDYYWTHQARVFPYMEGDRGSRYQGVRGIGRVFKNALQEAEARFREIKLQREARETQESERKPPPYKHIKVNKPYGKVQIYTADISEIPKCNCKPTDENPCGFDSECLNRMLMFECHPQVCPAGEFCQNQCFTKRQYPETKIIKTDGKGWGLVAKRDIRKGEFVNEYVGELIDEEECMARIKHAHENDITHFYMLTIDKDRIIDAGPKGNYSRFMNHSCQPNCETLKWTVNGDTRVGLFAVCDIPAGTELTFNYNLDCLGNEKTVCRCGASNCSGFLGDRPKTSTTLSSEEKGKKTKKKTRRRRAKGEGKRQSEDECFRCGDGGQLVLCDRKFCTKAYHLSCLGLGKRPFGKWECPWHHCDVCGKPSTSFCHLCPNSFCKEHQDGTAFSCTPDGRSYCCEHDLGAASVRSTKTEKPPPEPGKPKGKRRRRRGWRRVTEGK
# HCT-116 [7] = assay: Downregulation of DNMT1 protein level in human HCT-116 cells at 1 uM incubated for 12 hrs by MS-based global proteomic analysis; assay type: functional, cell-based
# HCT-116 [8] = assay: Induction of molecular glue effect mediated DNMT1 degradation in human HCT-116 cells assessed as reduction in DNMT1 protein level at 100 nM preincubated with MLN4924 for 2 hrs followed by compound addition and measured after 24 hrs by Western blot analysis; assay type: cell-based
# HCT-116 [9] = assay: Induction of molecular glue effect mediated DNMT1 degradation in human HCT-116 cells assessed as reduction in DNMT1 protein level at 100 nM preincubated with TRAF6 inhibitor C25-140 for 2 hrs followed by compound addition and measured after 24 hrs by Western blot analysis; assay type: cell-based
# HCT-116 [10] = assay: Induction of molecular glue effect mediated DNMT1 degradation in human HCT-116 cells transfected with NEDD4 siRNA assessed as reduction in DNMT1 protein level at 100 nM measured after 24 hrs by Western blot analysis; assay type: cell-based
smiles,measurement,setting,value
CCc1c(C#N)c(SC(C(N)=O)c2ccccc2)nc(N(C)CC(=O)NC)c1C#N (stereo not given),DC50,[1],35 nM
same,Activity,HCT-116 [2],Dose-dependent-effect
same,Emax,HCT-116 [3],89%
same,DC50,[4],254 nM
same,DC50,[5],86 nM
same,inhibition,[6],< 20%
same,Activity,HCT-116 [7],Active
same,Activity,HCT-116 [8],Active
same,Activity,HCT-116 [9],Active
same,Activity,HCT-116 [10],Active
